According to US20070243629A1, “High Affinity Ligands for Influenza Virus and Methods for Their Production” (Glykos Finland Oy, priority 2003, published 2007):

Key:
Format in all cases: binding, human influenza virus A
Set-up in all cases: key: “+” = binding; “−” = no binding; “(+)” = trace binding
A/Taiwan/1/86 H1N1 = test system: A/Taiwan/1/86 H1N1
A/Beijing/262/95 H1N1 = test system: A/Beijing/262/95 H1N1
A/New Caledonia/20/99 = test system: A/New Caledonia/20/99
A/Kiev/301/94 H3N2 = test system: A/Kiev/301/94 H3N2
A/Shangdong/9/93 H3N2 = test system: A/Shangdong/9/93 H3N2
A/PR/8/34 H1N1 = test system: A/PR/8/34 H1N1
A/X31, A/Aichi/3/75 H3N2 = test system: A/X31, A/Aichi/3/75 H3N2
A/2/Japan/305/57 H2N2 = test system: A/2/Japan/305/57 H2N2
A/Hong Kong/8/68 H3N2 = test system: A/Hong Kong/8/68 H3N2

Measured: Binding of different human influenza virus A strains to glycolipids

Globoside
−: all assays above
